Results: patent US20250099420A1, “SMALL MOLECULE MODULATORS OF GPR139 COMPLEX” (University of Florida Research Foundation, Incorporated, priority 2022, published 2025)
Like-named read-outs stand apart in the source and are kept apart here.

Experiments:
parental HEK cells = assay: HEK parental Agonist Counterscreen Assay (non-transfected cells); assay type: cell-based; details: for Averaged Max % Response (±St. Dev.): activity relative to known control
Text: The high control for the agonist counterscreen was Forskolin not acetylcholine.

GPR139 = target: T1, GPR139 (Homo sapiens, UniProt Q6DWJ6); assay: GPR139 Agonist titration / agonist counterscreen assay (calcium detection, HEK-GPR139 cells); assay type: cell-based; parameters: expressed in transfected cells; host or cells: HEK Aequorin cells, Maxcyte transient transfection; details: GPR139 Agonist Activity; for Averaged Max % Response (±St. Dev.): activity relative to known control; for EC50: read-out: EC50
T1 sequence (Q6DWJ6 1-353): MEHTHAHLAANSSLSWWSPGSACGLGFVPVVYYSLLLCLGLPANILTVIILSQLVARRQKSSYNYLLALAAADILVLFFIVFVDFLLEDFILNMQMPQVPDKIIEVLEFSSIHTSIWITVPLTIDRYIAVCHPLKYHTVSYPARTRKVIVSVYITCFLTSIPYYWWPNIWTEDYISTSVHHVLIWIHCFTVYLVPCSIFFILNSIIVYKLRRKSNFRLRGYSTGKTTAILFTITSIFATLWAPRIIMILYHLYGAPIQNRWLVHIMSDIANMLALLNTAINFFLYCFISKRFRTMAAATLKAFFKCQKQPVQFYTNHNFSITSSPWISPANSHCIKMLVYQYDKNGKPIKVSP
Description: GPR activity was assessed using a calcium detection assay. […] Negative control samples were treated with DMSO. […] Intracellular calcium was measured using Calcium 5.

[1] = Homo sapiens, HEK293, HEK Agonist Activity, parental non-transfected HEK cells
[2] = values printed in E-notation without unit
[3] = Homo sapiens, HEK293, HEK Agonist Activity section of Table 4 (parental HEK counterscreen)
[4] = HEK Agonist Activity section of Table 4 (parental HEK counterscreen)
[5] = HEK Agonist Activity, parental non-transfected HEK cells

Structure (SMILES)	Lipophilic Efficiency (logD) (parental HEK cells; HEK Agonist Activity)	Lipophilic Efficiency (logP) (parental HEK cells; HEK Agonist Activity)	Averaged Max % Response (±St. Dev.) (parental HEK cells; HEK Agonist Activity)	Averaged Max % Response (±St. Dev.) (GPR139)	Lipophilic Efficiency (logD) (GPR139; based on logD)	Lipophilic Efficiency (logP) (GPR139; based on logP)	Hill Slope (GPR139; fitted dose-response curve)	Efficiency Ligand (GPR139; ligand efficiency)	EC50 (GPR139; [2])	Lipophilic Efficiency (logD) (parental HEK cells; HEK Agonist Activity section)	Lipophilic Efficiency (logP) (parental HEK cells; HEK Agonist Activity section)	Averaged Max % Response (±St. Dev.) (parental HEK cells; HEK Agonist Activity section)	EC50 (parental HEK cells; [3])	EC50 (parental HEK cells; [4])	also measured
CCCn1c(CCC(=O)NCCc2ccc(OCC)cc2)nc2cccnc21 [SR-01000077930]	1.76	1.76	1.00 ± 2.79%	102.55 ± 5.37%	4.55	4.55	0.67	0.38	22.8 nM	–	–	–	–	–	EC50 (parental HEK cells; [1]): > 14100 nM
Cc1cc(CC(=O)N/C=C/c2cccc3ccccc23)n[nH]1 [SR-01000080408]	–	–	–	105.88 ± 16.21%	6.30	4.72	0.34	0.45	–	4.10	2.51	71.97 ± 7.16%	11900 nM	–	Hill Slope (parental HEK cells; HEK Agonist Activity section): 1.95
CC1=NNC(=O)C1CC(=O)N/N=C/c1cccc2ccccc12 (centres unmarked) [SR-01000080433]	–	–	–	107.91 ± 12.91%	4.98	4.98	0.75	0.40	242 nM	3.22	3.22	29.03 ± 7.47%	–	> 14100 nM	–
CC(C)Cn1c2c(c(=O)[nH]c1=O)C(NC(=O)CCC1CCCCC1)(C(F)(F)F)C(=O)N2 (centres unmarked) [SR-01000086488]	–	–	–	78.41 ± 20.14%	–	–	–	–	–	2.44	2.40	1.08 ± 3.12%	> 14100 nM	–	Efficiency Ligand (GPR139): 0.29; Hill Slope (GPR139): 1.22; Lipophilic Efficiency (logD) (GPR139): 3.95; Lipophilic Efficiency (logP) (GPR139): 3.92; EC50 (GPR139; HEK-GPR139 cells): 430 nM
O=C(Cn1cc2c(n1)CCCCC2)NCCCc1ccccc1 [SR-01000088420]	–	–	–	100.76 ± 18.47%	3.28	3.28	1.29	0.41	156 nM	1.33	1.33	12.56 ± 5.54%	–	> 14100 nM	–
Cc1ccc(CCNC(=O)Cn2cc3c(n2)CCCCC3)cc1 [SR-01000088477]	1.26	1.26	−0.30 ± 8.57%	120.85 ± 28.06%	4.18	4.18	0.72	0.47	–	–	–	–	–	–	EC50 (parental HEK cells; [1]): > 14100 nM
O=C1N2CN(Cc3ccccc3)CN3C(=O)N4CN(Cc5ccccc5)CN1C4C23 (centres unmarked) [SR-01000090996]	–	–	–	117.44 ± 4.30%	4.52	4.52	1.21	0.34	49.3 nM	2.07	2.07	−5.40 ± 6.26%	> 14100 nM	–	–
CC(C)(C)n1c2c(c(=O)[nH]c1=O)C(NC(=O)CCC1CCCCC1)(C(F)(F)F)C(=O)N2 (centres unmarked) [SR-01000091502]	–	–	–	88.58 ± 8.42%	4.63	4.59	0.85	0.31	141 nM	2.63	2.59	−12.00 ± 4.68%	–	> 14100 nM	–
Cc1ccccc1CN1CCN(CC(=O)NCCc2ccc(Cl)cc2)C1=O [SR-01000093460]	1.85	1.85	109.44 ± 22.66%	112.00 ± 16.24%	6.04	6.04	–	0.47	–	–	–	–	–	–	Hill Slope (parental HEK cells; HEK Agonist Activity): 15.09; EC50 (parental HEK cells; [5]): 11000 nM
C=C(CCc1cccc(CC)c1)C(C)C1CCC(Cc2ccccc2C)C1=C (centres unmarked) [SR-01000095280]	2.38	2.38	25.01 ± 8.12%	122.65 ± 11.25%	6.68	6.68	–	0.41	–	–	–	–	–	–	EC50 (parental HEK cells; [1]): > 14100 nM
Cc1cc(NC(=O)Cn2ncc3c2-c2ccccc2OC3)no1 [SR-01000098884]	–	–	–	75.62 ± 16.43%	–	–	–	–	–	3.22	3.22	0.57 ± 13.32%	–	> 14100 nM	Efficiency Ligand (GPR139): 0.35; Hill Slope (GPR139): 0.72; Lipophilic Efficiency (logD) (GPR139): 4.12; Lipophilic Efficiency (logP) (GPR139): 4.12; EC50 (GPR139; HEK-GPR139 cells): 1800 nM
O=C(Cn1ncc2c1-c1ccccc1OC2)Nc1ccc(CCO)cc1 [SR-01000098914]	–	–	–	97.42 ± 2.76%	–	–	–	–	–	2.18	2.18	11.28 ± 8.03%	> 14100 nM	–	Efficiency Ligand (GPR139): 0.34; Hill Slope (GPR139): 0.93; Lipophilic Efficiency (logD) (GPR139): 3.66; Lipophilic Efficiency (logP) (GPR139): 3.66; EC50 (GPR139; HEK-GPR139 cells): 468 nM
CC(C)c1ccc(NC(=O)Cn2ncc3c2-c2ccccc2OC3)cc1 [SR-01000098920]	–	–	–	139.09 ± 25.80%	3.02	3.02	0.40	0.36	181 nM	1.13	1.13	10.87 ± 9.19%	–	> 14100 nM	–
CCc1cccc(NC(=O)Cn2ncc3c2-c2ccccc2OC3)c1 [SR-01000098944]	1.42	1.42	16.33 ± 3.15%	118.40 ± 16.09%	4.22	4.22	0.20	0.43	22.4 nM	–	–	–	–	–	EC50 (parental HEK cells; [5]): > 14100 nM
C=C(CC1C=CC2=C1c1ccccc1CC2)Nc1ccc(CC)cc1 (centres unmarked) [SR-01000098976]	–	–	–	103.10 ± 11.12%	4.60	4.60	0.87	0.39	–	2.53	2.53	25.21 ± 6.04%	> 14100 nM	–	–
O=C(Cn1ncc2c1-c1ccccc1OC2)Nc1ccc(Cl)cc1 [SR-01000098980]	–	–	–	103.90 ± 24.19%	–	–	–	–	–	1.77	1.77	16.39 ± 16.07%	–	> 14100 nM	Efficiency Ligand (GPR139): 0.36; Hill Slope (GPR139): 0.43; Lipophilic Efficiency (logD) (GPR139): 3.09; Lipophilic Efficiency (logP) (GPR139): 3.09; EC50 (GPR139; HEK-GPR139 cells): 680 nM
